One series relates to C-33A cells. The series can be described thus: MTT cell viability assay, C-33A. Format: cell-based. The following applies: Homo sapiens, 48 h, read-out: Half inhibitory concentration (IC50), C-33A. As to the method: (§1) HepG2 (human epidermoid hepatocellular carcinoma cell), 7402 (human epidermoid hepatocellular carcinoma cell), C-33A (human epidermoid cervical carcinoma cell), and HeLa (human epidermoid cervical adenocarcinoma cell) were incubated in Dulbecco’s modified Eagle’s medium (DMEM), which was purchased from Gibco (Grand Island, NY, United States). SiHa cells (human epidermoid cervical squamous cell carcinoma) were incubated in minimum essential medium (MEM, also from Gibco). CaSki (human epidermoid cervical carcinoma cell) and LO2 (human normal liver cell) were incubated in minimum essential medium (MEM, also from Gibco). All cells were maintained at 37°C in a humidified incubator with 5% carbon dioxide, and the media contained 10% fetal bovine serum (FBS, Corning, United States) and 1% penicillin–streptomycin antibiotic solution (Corning, United States). SiHa and CaSki were bought from the China Center for Type Culture Collection (CCTCC). The other five types of cancer cell lines were obtained from the Experiment Center of Medicine, Sinopharm Dongfeng Hospital, Hubei University of Medicine. The compounds were dissolved in dimethyl sulfoxide (DMSO, MP Biomedicals, United States), and cisplatin was purchased from Aladdin, Shanghai, China. The control (0 μM) group was treated with DMSO only in the same conditions, and the DMSO content in the medium was less than 0.1%.
(§2) Cell viability was measured by a 3-(4,5-dimethylthiazol-2-yl)-2,5-diphenyltetrazolium bromide (MTT, MultiSciences, China) assay. The specific experimental steps referred to our previous research ([Zhu et al., 2020]). For each cell line, cells were digested and seeded in 96-well plates at a density of 1 × 10^3 cells/well. […] Then, the formed formazan crystals were dissolved in DMSO, and the plates were estimated in a […] microplate reader (BioTek Inc., Bio-Tek MQX200) at a wavelength of 490 nm. Optical density (OD) values were obtained, and the inhibition rate and IC50 of each compound on different cells were calculated by GraphPad Prism 8.0.1 software. […]

Another series has as its system CaSki cells. The series can be described thus: MTT cell viability assay, CaSki. The conditions noted are these: Homo sapiens, Ca-Ski, 48 h, read-out: Half inhibitory concentration (IC50), CaSki. Format: cell-based. As for the experimental part: as §1, §2
In another series the test system is SiHa cells. The series is described as follows: MTT cell viability assay, SiHa. The following applies: Homo sapiens, 48 h, read-out: Half inhibitory concentration (IC50), SiHa. The class given is cell-based. As to the method:
as §1, §2

Another series concerns HeLa cells. The series is described as follows: MTT cell viability assay, HeLa. The class given is cell-based. The following applies: Homo sapiens, 48 h, read-out: Half inhibitory concentration (IC50), HeLa. As to the method:
as §1, §2

Series [1] deals with HepG2 cells. The series can be described thus: MTT cell viability assay, HepG2. The following applies: Homo sapiens, 48 h, read-out: Half inhibitory concentration (IC50), HepG2. Format: cell-based. As to the method:
as §1, §2

In series [2] the test system is HepG2 cells. The series is described as follows: Wound healing assay, HepG2. The class given is cell-based, human. The following applies: 48 h. As for the experimental part: (§3) The experimental procedures were performed according to conventional methods ([Kovaříková et al., 2014]). Hepatocarcinoma cells at the logarithmic growth stage were taken and inoculated into six-well plates with 2 × 10^4 cells/well. When the cell density is about 80%, the cell wound was scratched with pipette tips. Cells were then washed with PBS and added to the cell culture broth containing 1% serum with varying concentrations of RPDPRH (0 μM, 6.25, 12.5, and 25 μM) for 48 h. Pictures were taken at 0 and 48 h under a microscope (100×). Wound healing rate (%) = [(0 h scratch distance−48 h scratch distance)/0 h scratch distance] × 100%.

In another series the test system is 7402 cells. The series is described as follows: Wound healing assay, 7402. The class given is cell-based, human. The following applies: 48 h. As to the method: as §3

In turn, `O=C1/C(=C/c2ccc(Cl)cc2)CC(/C=C/c2ccc(Cl)cc2)(C(=O)NC2CCCCC2)N1c1ccc(F)cc1` (stereo not shown) [RPDPRH, (2E, 4E)-4-(4-chlorobenzylidene)-2-(4-chlorostyryl)-N-cyclohexyl-1-(4-fluorophenyl)-5-oxopyrrolidine-2-carboxamide] had a melting point of 128 to 130 °C. Also, the IC50 in the series with C-33A cells was found to be 4.66 µM. The IC50 in the series with CaSki cells was 6.42 µM. Further, the IC50 in the series on SiHa cells was 17.7 µM. Besides, in the series on HeLa cells, the IC50 is 15.2 µM. Besides, the IC50 in the series with HepG2 cells [1] is 12.4 µM. The wound healing rate result in the series on HepG2 cells [2] (HepG2, 25 μM, vs DMSO control, p < 0.001) is “significantly decreased”. The wound healing rate result in the series with HepG2 cells [2] (HepG2, 6.25, 12.5 and 25 μM) was “significantly reduced”. In the series with 7402 cells (7402, 25 μM, vs DMSO control, p < 0.01), the wound healing rate result is “reduced significantly”. In addition, the wound healing rate result with 7402 cells (7402, 6.25, 12.5 and 25 μM) was “significantly reduced”.

The record behind these values is article PMC9157788, “Design, Synthesis, and Apoptosis-Promoting Effect Evaluation of Rhopaladins’ Analog 4-Arylidene-5-Oxopyrrolidine Derivatives” (Frontiers in Chemistry, 2022).
